Measurements reported in PMC9572541, “Design, Synthesis and Biological Evaluation of Novel and Potent Protein Arginine Methyltransferases 5 Inhibitors for Cancer Therapy” (Molecules, 2022).
“Also recorded” adds a separate entry of the source.

Key:
MV-4-11 xenograft = MV-4-11 xenograft mouse model; type: in vivo, BALB/c nude mice; conditions: 28 days
Description: Based on the excellent enzymatic and anti-proliferative activities of compound 20 in vitro, we then evaluated antitumor activities in vivo in an MV-4-11 xenograft mouse model.
Male BALB/c nude mice (6–8 weeks old) were purchased from Hangzhou Medical College. All animals were housed in a specific pathogen-free facility. MV-4-11 cells (5 × 10^6) suspended in 0.2 mL of PBS were inoculated subcutaneously on the right flank of each BALB/c nude mouse. Mice were divided randomly (5 mice for each group) into two treatment groups and a control group when the size of the tumors reached 150 mm^3. […] The tumor volume and body weight were measured every 2 days. The tumor volume was determined with Vernier calipers and calculated as follows: tumor volume = a × b^2/2, where a and b stand for the longest and shortest diameters measured by the vernier caliper, respectively. All animal experiments have been approved by Pharmaceutical Experiment Center of China Pharmaceutical University.
(A) The resulting tumors excised from the animals after treatment. […] (C) The nude mouse body weight was measured every 2 days. (D) The tumor volumes of the nude mice were measured and calculated once every 2 days.

sDMA = test: Western blot of PRMT5 substrate sDMA in MV-4-11 cells; type: cell-based; conditions: 96 h, five-fold concentration gradient
Description: Compounds were administered at the expected concentration for the expected time in MV-4-11 cell lines. After being washed twice with PBS, cells were lysed with RIPA buffer, protease inhibitors (PMSF, MCE, New York, NY, USA), and phosphatase cocktails II (MCE, USA) for 1 h. The mixture was centrifuged at 12000 rpm for 15 min. The total protein content was quantified by BCA kit (Beyotime, Shanghai, China). Equivalent proteins were electrophoresed through 8~10% SDS-PAGE and then transferred on to polyvinylidene difluoride membranes (Millipore, Burlington, MA, USA). Subsequently, block the membrane for 1~2 h by 5% (w/v) skim milk (BD, Columbus, OH, USA). Proteins were detected using primary antibodies, followed by HRP-conjugated secondary antibodies, and visualization was performed using ECL (Vazyme Biotech, Beijing, China) as the HRP substrate. The target blots were detected with chemiluminescence system (Tanon, Shanghai, China). The densitometric analysis was performed with Image J software.
Western blot analysis of PRMT5 substrate sDMA, as indicated in MV-4-11 cancer cells treated with the indicated compounds for 96 h. β-Tubulin was used as a loading control. (B) The relative strength of sDMA signal on the Western blots was measured by densitometry. The data are shown as the mean ± SD of three independent experiments.

AML-12 hepatocytes = test: Toxicity on normal AML-12 hepatocytes; type: cell-based
From the text: MV-4-11 and MDA-MB-468 cell lines were used to evaluate the anti-proliferative activities of the selected target compounds (CellTiter-Glo assay), and AML-12 hepatocytes were selected to evaluate the toxicity of the compounds.
MV-4-11 and MDA-MB-468 cell line were derived from Cell Resources Center of Shanghai Academy of life sciences (Shanghai, China). AML-12 cell line was brough from Nanjing Lixing Biotechnology Co. Ltd. (Nanjing, China). MDA-MB-468 cell line was maintained in Dulbecco’s Modified Eagle Medium (DMEM, KeyGEN Bio) that contained 10% FBS (Biochanel, China), MV-4-11 cell line was maintained in Iscove’s Modified Dulbecco Medium containing; 10% FBS (Biochannel, China), AML-12 cell line was maintained in DMEM/F-12 (1:1) (KeyGEN, China; 1% ITS Liquid Media Supplement (Sigma, America), dexamethasone 40 ng/mL (Sigma, USA) and 10% FBS (Biochannel, China). All cells were grown in a humidified incubator containing 5% carbon dioxide at 37 ℃. All compounds were dispersed in dimethyl sulfoxide (Sigma), the concentration of the reserve solution was 10 mmol/L and the solution was stored in a refrigerator at −20 ℃. SDMA (# 13222S), β- Tubulin (#2146S) and horseradish peroxidase (HRP)-linked secondary antibodies anti-rabbit or anti-mouse IgG were purchased from Cell Signaling Technology (CST), and the anti-PRMT5 (ab109451) antibody was purchased from ABCAM. […]

Question: For `O=C(NC[C@H](O)CN1CCc2ccccc2C1)c1ccc2c(c1)c1c(n2CC2COC2)CCCC1` [Compound 20, (S)-N-(3-(3,4-dihydroisoquinolin-2(1H)-yl)-2-hydroxypropyl)-9-(oxetan-3-ylmethyl)-2,3,4,9-tetrahydro-1H-carbazole-6-carboxamide], which body weight (MV-4-11 xenograft; 10 mg/kg BID) is on record?
Answer: Its body weight is “no significant weight fluctuations”.

Question: What about the tolerability / mortality (MV-4-11 xenograft; 10 mg/kg BID) of the same molecule?
Answer: The tolerability / mortality was “well-tolerated with no mortality”.

Question: And the TGI (MV-4-11 xenograft; 10 mg/kg, twice daily (BID))?
Answer: The TGI was 47.6%.

Question: And the sDMA protein expression (sDMA)?
Answer: Its sDMA protein expression is “concentration-dependent decrease in sDMA”.

Question: And the “toxicity to normal AML-12 hepatocytes (in words)” value (AML-12 hepatocytes)?
Answer: The value was “almost no toxicity; also recorded: no significant cytotoxicity”.

Question: And the inhibition at 10 µM (AML-12 hepatocytes; Mus musculus, AML12, read-out: AML-12 Inhibition Rate% @10 μM)?
Answer: Its inhibition at 10 µM is -30.5 ± 9.4%.

Question: And the inhibition at 20 µM (AML-12 hepatocytes; Mus musculus, AML12, read-out: AML-12 Inhibition Rate% @20 μM)?
Answer: Its inhibition at 20 µM is -27 ± 1.2%.
